Assay: log P by HPLC on reversed-phase column (C18), EEC Directive 79/831 Annex V.A8
Format: physicochemical
Settings: Method A: 40° C., 0.1% aqueous formic acid and acetonitrile
Description: In table 1, the log P values were determined in accordance with EEC Directive 79/831 Annex V.A8 by HPLC (High Performance Liquid Chromatography) on a reversed-phase column (C18), using the methods described below:
Method A: temperature: 40° C.; mobile phases: 0.1% aqueous formic acid and acetonitrile; linear gradient from 10% acetonitrile to 95% acetonitrile;
Method B: temperature: 40° C.; mobile phases: 0.001 molar ammonium acetate solution in water and acetonitrile; linear gradient from 10% acetonitrile to 95% acetonitrile.
Calibration was carried out using unbranched alkan-2-ones (comprising 3 to 16 carbon atoms) with known log P values (determination of the log P values by the retention times using linear interpolation between two successive alkanones). lambda-max-values were determined using UV-spectra from 200 nm to 400 nm and the peak values of the chromatographic signals.
In the case of `C[Si]1(c2ccccc2)c2c(F)cccc2Oc2c(Cl)nc3ccccc3c21` (stereo not drawn) [6-chloro-11-fluoro-12-methyl-12-phenyl-12H-[1,4]benz-oxasilino[2,3-c]quinoline], the logP was 5.94. `C[Si](C)(O)c1ccccc1Oc1cnc2ccccc2c1` [I.002] showed a logP of 2.82. For `C[Si](C)(O)c1c(F)cccc1Oc1cnc2ccccc2c1` [I.003], the logP was 2.90. Molecule `CC[Si](C)(C)c1c(F)cccc1Oc1cnc2ccccc2c1` [I.005] has a logP of 5.47. Work on `C=C[Si](C)(C)c1c(F)cccc1Oc1cnc2ccccc2c1` [I.006] yielded a logP of 5.24. `C[Si](C)(CCl)c1c(F)cccc1Oc1cnc2ccccc2c1` [I.007] showed a logP of 5.00. With `C[Si](C)(C)c1ccccc1Nc1cnc2ccccc2c1` [I.011] the logP was 3.46. Molecule `C[Si](C)(C)c1ccccc1Cc1cnc2ccccc2c1` [I.012] has a logP of 4.06. `C[Si](C)(c1ccccc1)c1ccccc1Cc1cnc2ccccc2c1` [I.013] gave a logP of 4.20. For `C[Si](C)(c1cccs1)c1ccccc1Cc1cnc2ccccc2c1` [I.015], the logP was 4.04. `C[Si](C)(c1ccc(Oc2ccccc2)cc1)c1ccccc1Cc1cnc2ccccc2c1` [I.016] gave a logP of 5.62. Work on `C[Si](C)(C)c1c(F)cccc1C(=O)c1cnc2ccccc2c1` [I.017] yielded a logP of 4.49. Molecule `C[Si](C)(O)c1cc(F)ccc1Oc1cnc2c(Cl)cccc2c1` [I.018] has a logP of 3.50. `C[Si](C)(C)c1ccccc1Oc1cnc2c(F)c(F)ccc2c1` [I.020] gave a logP of 5.39. `C[Si](C)(C)c1c(F)cccc1Oc1cnc2c(F)c(F)ccc2c1` [I.021] showed a logP of 5.32. With `C[Si](C)(O)c1c(F)cccc1Oc1cnc2c(F)c(F)ccc2c1` [I.022] the logP was 2.35. `C[Si](C)(O)c1ccccc1Oc1cnc2c(F)c(F)ccc2c1` [I.023] showed a logP of 3.27. In the case of `Cc1nc2c(F)c(F)ccc2cc1Oc1cccc(F)c1[Si](C)(C)O` [I.025], the logP was 3.55. In the case of `Cc1nc2c(F)c(F)ccc2cc1Oc1cccc(F)c1[Si](C)(C)c1ccccc1` [I.028], the logP was 6.01. With `Cc1nc2c(F)c(F)ccc2cc1Oc1cc(N)ccc1[Si](C)(C)C` [I.029] the logP was 4.59. In the case of `Cc1nc2c(F)c(F)ccc2cc1Oc1cccc(F)c1[Si](C)(C)c1cccs1` [I.030], the logP was 5.65. For `Cc1nc2c(F)c(F)ccc2cc1Oc1cc([N+](=O)[O-])ccc1[Si](C)(C)C` [I.031], the logP was 5.34. For `COc1cccc(Oc2cc3ccc(F)c(F)c3nc2C)c1[Si](C)(C)O` [I.033], the logP was 3.69. In the case of `Cc1nc2c(F)c(F)ccc2cc1Oc1cccc(Cl)c1[Si](C)(C)O` [I.034], the logP was 3.83. Work on `Cc1nc2c(F)c(F)ccc2cc1Oc1cc(F)ccc1[Si](C)(C)O` [I.035] yielded a logP of 3.55. For `Cc1nc2c(F)c(F)ccc2cc1Oc1cccc(OC(F)(F)F)c1[Si](C)(C)O` [I.036], the logP was 4.20. Molecule `Cc1nc2c(F)c(F)ccc2cc1Oc1ccc(F)cc1[Si](C)(C)O` [I.037] has a logP of 3.55. In the case of `COc1cccc(Oc2cc3ccc(F)c(F)c3nc2C)c1[Si](C)(C)C` [I.038], the logP was 5.85. `CC[Si](C)(C)c1c(C#N)cccc1Oc1cc2ccc(F)c(F)c2nc1C` [I.039] showed a logP of 5.22. `Cc1nc2c(F)c(F)ccc2cc1Cc1ccccc1[Si](C)(C)C` [I.040] gave a logP of 5.54. Molecule `CC[Si](C)(C)c1ccccc1Oc1cnc2c(c1)CCCC2` [I.041] has a logP of 3.68. `Cc1c(Oc2cccc(F)c2[Si](C)(C)C)cnc2ccccc12` [I.042] showed a logP of 5.62. `CC[Si](C)(C)c1c(C#N)cccc1Oc1c(C)nc2c(F)c(F)ccc2c1[Si](C)(C)CC` [I.043] gave a logP of 7.36. With `C=Cc1nc2ccccc2cc1Oc1cccc(F)c1[Si](C)(C)C` [I.044] the logP was 6.30. Work on `C[Si](C)(C)c1c(F)cccc1Oc1cc2ccccc2nc1-c1ccccc1` [I.045] yielded a logP of 6.40. `Cc1nc2ccccc2cc1Oc1cccc(F)c1[Si](C)(C)C` [I.046] gave a logP of 5.08. With `Cc1nc2ccccc2cc1Oc1ccccc1[Si](C)(C)O` [I.048] the logP was 2.16. `Cc1nc2ccccc2cc1Oc1cccc(F)c1[Si](C)(C)O` [I.049] gave a logP of 2.41. For `Cc1nc2ccccc2cc1Oc1cccc(OC(F)(F)F)c1[Si](C)(C)O` [I.050], the logP was 3.35. `Cc1nc2ccccc2cc1Oc1cccc(Cl)c1[Si](C)(C)O` [I.051] showed a logP of 2.80. Molecule `CC[Si](C)(C)c1c(F)cccc1Oc1cc2ccccc2nc1C` [I.052] has a logP of 5.62. In the case of `Cc1nc2ccccc2cc1Oc1cccc(F)c1[SiH](C)C` [I.053], the logP was 4.56. With `Cc1nc2ccccc2cc1Nc1ccccc1[Si](C)(C)C` [I.054] the logP was 2.46. `Cc1nc2ccccc2cc1Nc1ccc(F)cc1[Si](C)(C)C` [I.055] showed a logP of 2.63. In the case of `CCN(c1ccccc1[Si](C)(C)C)c1cc2ccccc2nc1C` [I.056], the logP was 3.16. Molecule `CC[Si](C)(C)c1c(F)cccc1Oc1cc2ccccc2[n+]([O-])c1C` [I.057] has a logP of 4.54. In the case of `Cc1c(Nc2ccccc2[Si](C)(C)C)cc2ccccc2[n+]1[O-]` [I.058], the logP was 3.62. In the case of `C[Si](C)(C)c1c(F)cccc1Oc1cc2ccccc2nc1O` [I.059], the logP was 3.85. Molecule `CCOc1nc2ccccc2cc1Oc1cccc(F)c1[Si](C)(C)C` [I.060] has a logP of 6.79. `C[Si](C)(C)c1c(F)cccc1Oc1cc2ccccc2nc1C1CC1` [I.061] showed a logP of 6.90. `C[Si](C)(C)c1c(F)cccc1Oc1cc2ccccc2nc1Cl` [I.063] gave a logP of 5.90. Work on `CSc1nc2ccccc2cc1Oc1cccc(F)c1[Si](C)(C)C` [I.064] yielded a logP of 6.79. `C[Si](C)(C)c1c(F)cccc1Oc1cc2ccccc2nc1C(F)F` [I.065] gave a logP of 5.45. In the case of `C[Si](C)(C)c1c(F)cccc1Nc1cc2ccccc2nc1C(F)F` [I.066], the logP was 5.68. Work on `C[Si](C)(C)c1c(F)cccc1Oc1cc2ccccc2nc1-c1ccsc1` [I.067] yielded a logP of 6.66. Molecule `C[Si](C)(C)c1ccccc1Oc1cnc2ccccc2n1` [I.068] has a logP of 5.05. Molecule `C[Si](C)(C)c1c(F)cccc1Oc1cnc2ccccc2n1` [I.069] has a logP of 5.22. With `C[Si](C)(O)c1ccccc1Oc1cnc2ccccc2n1` [I.070] the logP was 2.86. For `C[Si](C)(O)c1c(F)cccc1Oc1cnc2ccccc2n1` [I.071], the logP was 3.01. In the case of `CC(C)(C)[Si](C)(C)c1ccccc1Oc1cnc2ccccc2n1` [I.072], the logP was 6.30. Molecule `CC(C)C[Si](C)(C)c1ccccc1Oc1cnc2ccccc2n1` [I.073] has a logP of 6.33. Work on `CC[Si](CC)(CC)c1ccccc1Oc1cnc2ccccc2n1` [I.074] yielded a logP of 6.43. `CC(C)[Si](C)(C)c1ccccc1Oc1cnc2ccccc2n1` [I.075] gave a logP of 5.91. Molecule `CC[Si](C)(C)c1ccccc1Oc1cnc2ccccc2n1` [I.076] has a logP of 5.48. `CC[Si](C)(C)c1ccccc1Oc1cnc2c(F)c(F)ccc2n1` [I.077] showed a logP of 5.62. Molecule `C[Si](C)(C)c1c(F)cccc1Oc1cnc2c(F)c(F)ccc2n1` [I.078] has a logP of 5.20. Molecule `C[Si](C)(C)c1ccccc1Oc1cnc2c(F)c(F)ccc2n1` [I.079] has a logP of 5.28. For `C[Si](C)(c1ccccc1Oc1cnc2c(F)c(F)ccc2n1)C1CCCCC1` [I.080], the logP was 6.94. Work on `C[Si](C)(O)c1ccccc1Oc1cnc2c(F)c(F)ccc2n1` [I.081] yielded a logP of 3.23. With `C[Si](C)(O)c1c(F)cccc1Oc1cnc2c(F)c(F)ccc2n1` [I.082] the logP was 3.33. Work on `C[Si](C)(F)c1c(F)cccc1Oc1cnc2c(F)c(F)ccc2n1` [I.083] yielded a logP of 5.01. Molecule `C[Si](C)(C)c1ccccc1Nc1cnc2c(F)c(F)ccc2n1` [I.084] has a logP of 4.49. With `Cc1nc2c(F)c(F)ccc2nc1Oc1cccc(F)c1[Si](C)(C)O` [I.085] the logP was 3.67. `Cc1nc2c(F)c(F)ccc2nc1Oc1ccccc1[Si](C)(C)C` [I.086] gave a logP of 5.46. With `Cc1nc2c(F)c(F)ccc2nc1Oc1ccccc1[Si](C)(C)O` [I.087] the logP was 3.35. `Cc1nc2c(F)c(F)ccc2nc1Oc1cccc(F)c1[Si](C)(C)C` [I.088] gave a logP of 5.65. Molecule `Cc1nc2c(F)c(F)ccc2nc1Oc1c(F)cccc1[Si](C)(C)O` [I.089] has a logP of 3.62. Molecule `Cc1nc2c(F)c(F)ccc2nc1Oc1cccc(Cl)c1[Si](C)(C)O` [I.090] has a logP of 3.94. `C=C[Si](C)(C)c1c(F)cccc1Oc1nc2ccc(F)c(F)c2nc1C` [I.091] showed a logP of 5.62. `Cc1nc2c(F)c(F)ccc2nc1Oc1cccc(F)c1[Si](C)(C)F` [I.092] gave a logP of 4.75. For `Cc1nc2c(F)c(F)ccc2nc1Oc1cc(C#N)ccc1[Si](C)(C)O` [I.093], the logP was 3.39. With `COc1cccc(Oc2nc3ccc(F)c(F)c3nc2C)c1[Si](C)(C)O` [I.094] the logP was 3.60. For `Cc1nc2c(F)c(F)ccc2nc1Oc1cccc(OC(F)(F)F)c1[Si](C)(C)O` [I.095], the logP was 4.34. `Cc1ccc([Si](C)(C)O)c(Oc2nc3ccc(F)c(F)c3nc2C)c1` [I.096] showed a logP of 3.76. Molecule `Cc1ccc([Si](C)(C)O)c(Oc2nc3ccc(F)c(F)c3nc2C)c1` [I.097] has a logP of 3.76. With `Cc1nc2c(F)c(F)ccc2nc1Oc1ccc(F)cc1[Si](C)(C)O` [I.098] the logP was 3.63. `Cc1ccc(Oc2nc3ccc(F)c(F)c3nc2C)c([Si](C)(C)O)c1` [I.099] showed a logP of 3.85.

Same assay, conditions: Method B: 40° C., 0.001 molar ammonium acetate solution in water and acetonitrile
Molecule `C[Si](C)(O)c1ccccc1Nc1cnc2ccccc2c1` [I.009] has a logP of 3.20.

Same assay, conditions: reversed-phase HPLC column (C18), Method A: 40° C., 0.1% aqueous formic acid and acetonitrile
For `C[SiH](c1ccccc1)c1c(Oc2cccc(F)c2)c(Cl)nc2ccccc12` (stereo not drawn) [2-chloro-3-(3-fluorophenoxy)-4-[methyl(phenyl)silyl]quinoline], the chromatographic logP was 5.9. Work on `C[Si](C)(c1ccc(Cl)cc1)c1ccccc1Cc1cnc2ccccc2c1` [I.014, 3-{2-[(4-chlorophenyl)(dimethyl)silyl]benzyl}quinoline] yielded a chromatographic logP of 4.74.

Reference: patent US10683311B2 (priority 2015, dated 2020)
